Measured values from paper PMC8185074, “Anchor extension: a structure-guided approach to design cyclic peptides targeting enzyme active sites” (Nature Communications, 2021).
pIC50: −log10 of the molar value. Peptide text beside a SMILES is read from it.

Tests used:
Format in all cases: biochemical
HDAC2 = molecular target: T1, HDAC2 (Homo sapiens, UniProt Q92769); assay: HDAC2 inhibition, full IC50 measurement (Reaction Biology; fluorogenic p53 peptide RHKK(Ac)AMC)
T1 construct: purchased Reaction Biology Corporation (assay run by the CRO)
How it was run: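 Deacetylation of 50 μM RHKK(Ac)AMC is measured after 1 h at 30 °C in pH 8.0 Tris buffer (1% DMSO, 1 mg/ml BSA). Developer ends the reaction; the post-plateau 360/460 nm signal is fitted to IC50, averaging replicate measurements.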

HDAC1 = molecular target: T2, HDAC1 (Homo sapiens, UniProt Q13547); assay: HDAC1 inhibition, full IC50 measurement (Reaction Biology; fluorogenic p53 peptide RHKK(Ac)AMC); conditions: t1/t2 replicates
T2 construct: purchased Reaction Biology Corporation (assay run by the CRO)
Description: (§1) The assay was performed using 50 μM fluorogenic peptide from p53 residues 379-382 [RHKK(Ac)AMC] in a base reaction buffer of 50 mM Tris-HCl at pH 8.0, 137 mM NaCl, 2.7 mM KCl, 1 mM MgCl2, and freshly added 1 mg/ml BSA and 1% DMSO. Peptides were first dissolved in DMSO and then added to the reaction mixture with the enzyme using acoustic technique, enough to reach the desired concentration for that assay point. Peptide concentrations were calculated based on mass of lyophilized peptide and its molecular weight. The substrate was then added and incubated for 1 hour at 30 °C in a sealed container. After the incubation, developer was added to stop the reaction and develop color. Kinetic measurements were then performed for 20 min with Envision with 5 min intervals (Ex/Em = 360/460 nm). The endpoint after plateau was taken for IC50 measurement.
(§2) In cases where duplicate measures are used, average data is reported in the main text or Supplementary Tables.

HDAC8 = molecular target: T3, HDAC8 (Homo sapiens, UniProt Q9BY41); assay: HDAC8 inhibition, full IC50 measurement (Reaction Biology; fluorogenic p53 peptide RHKK(Ac)AMC); conditions: t1/t2 replicates
T3 construct: purchased Reaction Biology Corporation (assay run by the CRO)
T3 sequence (Q9BY41 1-377): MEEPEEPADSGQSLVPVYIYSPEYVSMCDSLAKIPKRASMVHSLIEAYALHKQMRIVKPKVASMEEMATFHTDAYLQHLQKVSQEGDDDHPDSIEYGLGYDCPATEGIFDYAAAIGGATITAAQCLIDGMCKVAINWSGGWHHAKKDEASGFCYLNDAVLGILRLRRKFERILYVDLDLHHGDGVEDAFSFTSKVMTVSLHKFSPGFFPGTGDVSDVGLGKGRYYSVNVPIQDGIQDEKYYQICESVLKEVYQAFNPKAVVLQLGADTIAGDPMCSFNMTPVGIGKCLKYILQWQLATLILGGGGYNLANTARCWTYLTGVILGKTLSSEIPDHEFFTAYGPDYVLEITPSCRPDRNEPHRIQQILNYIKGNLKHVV
Description: as §1, §2

[1] = peptide conc. 1.00E-05 M, listed as des1.1.0_t1
[2] = peptide conc. 1.00E-05 M, listed as des1.1.0_t2
[3] = peptide conc. 1.11E-06 M, listed as des1.1.0_t1
[4] = peptide conc. 1.11E-06 M, listed as des1.1.0_t2
[5] = peptide conc. 1.23E-07 M, listed as des1.1.0_t1
[6] = peptide conc. 1.23E-07 M, listed as des1.1.0_t2
[7] = peptide conc. 1.37E-08 M, listed as des1.1.0_t1
[8] = peptide conc. 1.52E-09 M, listed as des1.1.0_t1
[9] = peptide conc. 1.52E-09 M, listed as des1.1.0_t2
[10] = peptide conc. 3.33E-06 M, listed as des1.1.0_t1
[11] = peptide conc. 3.33E-06 M, listed as des1.1.0_t2
[12] = peptide conc. 3.70E-07 M, listed as des1.1.0_t1
[13] = peptide conc. 3.70E-07 M, listed as des1.1.0_t2
[14] = peptide conc. 4.12E-08 M, listed as des1.1.0_t1
[15] = peptide conc. 4.12E-08 M, listed as des1.1.0_t2
[16] = peptide conc. 4.57E-09 M, listed as des1.1.0_t1
[17] = peptide conc. 4.57E-09 M, listed as des1.1.0_t2
[18] = peptide conc. 5.08E-10 M, listed as des1.1.0_t1
[19] = peptide conc. 5.08E-10 M, listed as des1.1.0_t2

T1 sequence (Q92769 whole entry): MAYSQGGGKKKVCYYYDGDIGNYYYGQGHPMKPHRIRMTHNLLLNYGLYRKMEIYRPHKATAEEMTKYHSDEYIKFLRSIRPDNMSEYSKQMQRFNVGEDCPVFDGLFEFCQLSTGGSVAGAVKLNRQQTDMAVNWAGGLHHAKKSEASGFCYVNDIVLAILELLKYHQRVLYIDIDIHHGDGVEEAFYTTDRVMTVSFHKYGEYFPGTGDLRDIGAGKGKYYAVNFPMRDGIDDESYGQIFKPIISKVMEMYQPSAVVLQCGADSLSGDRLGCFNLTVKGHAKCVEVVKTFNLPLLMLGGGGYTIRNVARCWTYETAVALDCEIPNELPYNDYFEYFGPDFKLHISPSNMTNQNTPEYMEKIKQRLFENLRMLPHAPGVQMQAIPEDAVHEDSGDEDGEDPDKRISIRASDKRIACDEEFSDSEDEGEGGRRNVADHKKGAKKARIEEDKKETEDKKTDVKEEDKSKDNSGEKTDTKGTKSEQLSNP
T2 sequence (Q13547 whole entry): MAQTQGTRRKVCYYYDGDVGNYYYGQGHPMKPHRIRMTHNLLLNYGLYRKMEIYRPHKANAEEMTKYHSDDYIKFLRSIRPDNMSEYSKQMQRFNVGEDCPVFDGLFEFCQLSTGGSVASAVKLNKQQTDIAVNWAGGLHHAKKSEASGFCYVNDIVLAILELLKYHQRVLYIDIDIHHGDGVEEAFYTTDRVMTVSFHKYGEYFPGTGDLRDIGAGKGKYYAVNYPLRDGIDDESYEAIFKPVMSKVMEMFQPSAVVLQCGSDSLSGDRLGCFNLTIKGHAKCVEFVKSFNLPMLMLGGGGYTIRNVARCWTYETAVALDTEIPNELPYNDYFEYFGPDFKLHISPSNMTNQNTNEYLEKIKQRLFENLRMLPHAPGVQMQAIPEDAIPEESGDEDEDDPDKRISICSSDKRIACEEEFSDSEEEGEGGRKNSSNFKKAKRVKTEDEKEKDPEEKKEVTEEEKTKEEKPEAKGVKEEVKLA

NCCCC[C@@H]1NC(=O)[C@@H]2CCCN2C(=O)[C@H](CC(N)=O)NC(=O)[C@H](CCCCCS)NC(=O)CNC(=O)[C@H](Cc2c[nH]c3ccccc23)NC(=O)[C@@H](CCCCN)NC(=O)[C@H](CCC(N)=O)NC1=O [des1.1.0, SHA-Asn-Pro-Lys-Gln-dLys-Trp-Gly] (HELM PEPTIDE1{G.[O=C([C@H](CCCCCS)N[*:1])[*:2]].N.P.K.Q.[dK].W}$PEPTIDE1,PEPTIDE1,1:R1-8:R2$$$V2.0)
HDAC2 activity raw data (signal) (HDAC2; Conc. 1.00E-05 M, t1): 26927
HDAC2 activity raw data (signal) (HDAC2; Conc. 1.00E-05 M, t2): 32005
HDAC2 activity raw data (signal) (HDAC2; Conc. 1.11E-06 M, t1): 219707
HDAC2 activity raw data (signal) (HDAC2; Conc. 1.11E-06 M, t2): 218492
HDAC2 activity raw data (signal) (HDAC2; Conc. 1.23E-07 M, t1): 761586
HDAC2 activity raw data (signal) (HDAC2; Conc. 1.23E-07 M, t2): 802228
HDAC2 activity raw data (signal) (HDAC2; Conc. 1.37E-08 M, t1): 1027147
HDAC2 activity raw data (signal) (HDAC2; Conc. 1.37E-08 M, t2): 1098979
HDAC2 activity raw data (signal) (HDAC2; Conc. 1.52E-09 M, t1): 1105616
HDAC2 activity raw data (signal) (HDAC2; Conc. 1.52E-09 M, t2): 1105020
HDAC2 activity raw data (signal) (HDAC2; Conc. 3.33E-06 M, t1): 102737
HDAC2 activity raw data (signal) (HDAC2; Conc. 3.33E-06 M, t2): 85727
HDAC2 activity raw data (signal) (HDAC2; Conc. 3.70E-07 M, t1): 469170
HDAC2 activity raw data (signal) (HDAC2; Conc. 3.70E-07 M, t2): 506124
HDAC2 activity raw data (signal) (HDAC2; Conc. 4.12E-08 M, t1): 943203
HDAC2 activity raw data (signal) (HDAC2; Conc. 4.12E-08 M, t2): 906297
HDAC2 activity raw data (signal) (HDAC2; Conc. 4.57E-09 M, t1): 1010930
HDAC2 activity raw data (signal) (HDAC2; Conc. 4.57E-09 M, t2): 1048769
HDAC2 activity raw data (signal) (HDAC2; Conc. 5.08E-10 M, t1): 1134293
HDAC2 activity raw data (signal) (HDAC2; Conc. 5.08E-10 M, t2): 1187103
pIC50 (HDAC2; figure legends, Supp. Table 1, read-out: HDAC2 IC50): 6.54
HDAC1 activity raw data (signal) (HDAC1; [1]): 20784
HDAC1 activity raw data (signal) (HDAC1; [2]): 14494
HDAC1 activity raw data (signal) (HDAC1; [3]): 173781
HDAC1 activity raw data (signal) (HDAC1; [4]): 153537
HDAC1 activity raw data (signal) (HDAC1; [5]): 723204
HDAC1 activity raw data (signal) (HDAC1; [6]): 656726
HDAC1 activity raw data (signal) (HDAC1; [7]): 1174733
HDAC1 activity raw data (signal) (HDAC1; peptide conc. 1.37E-08 M, listed as des1.1.0_t2): 1037204
HDAC1 activity raw data (signal) (HDAC1; [8]): 1283411
HDAC1 activity raw data (signal) (HDAC1; [9]): 1084142
HDAC1 activity raw data (signal) (HDAC1; [10]): 63841
HDAC1 activity raw data (signal) (HDAC1; [11]): 53160
HDAC1 activity raw data (signal) (HDAC1; [12]): 422237
HDAC1 activity raw data (signal) (HDAC1; [13]): 392419
HDAC1 activity raw data (signal) (HDAC1; [14]): 1039124
HDAC1 activity raw data (signal) (HDAC1; [15]): 863645
HDAC1 activity raw data (signal) (HDAC1; [16]): 1182029
HDAC1 activity raw data (signal) (HDAC1; [17]): 1065379
HDAC1 activity raw data (signal) (HDAC1; [18]): 1239936
HDAC1 activity raw data (signal) (HDAC1; [19]): 1111104
HDAC8 activity raw data (signal) (HDAC8; [1]): 10236983
HDAC8 activity raw data (signal) (HDAC8; [2]): 10257985
HDAC8 activity raw data (signal) (HDAC8; [3]): 29747792
HDAC8 activity raw data (signal) (HDAC8; [4]): 28102681
HDAC8 activity raw data (signal) (HDAC8; [5]): 42994609
HDAC8 activity raw data (signal) (HDAC8; [6]): 40726222
HDAC8 activity raw data (signal) (HDAC8; [7]): 47328720
HDAC8 activity raw data (signal) (HDAC8; [8]): 53395040
HDAC8 activity raw data (signal) (HDAC8; [9]): 46072556
HDAC8 activity raw data (signal) (HDAC8; [10]): 22600954
HDAC8 activity raw data (signal) (HDAC8; [11]): 20891410
HDAC8 activity raw data (signal) (HDAC8; [12]): 39809686
HDAC8 activity raw data (signal) (HDAC8; [13]): 39972357
HDAC8 activity raw data (signal) (HDAC8; [14]): 43706367
HDAC8 activity raw data (signal) (HDAC8; [15]): 45310513
HDAC8 activity raw data (signal) (HDAC8; [16]): 46840747
HDAC8 activity raw data (signal) (HDAC8; [17]): 46072556
HDAC8 activity raw data (signal) (HDAC8; [18]): 54262535
HDAC8 activity raw data (signal) (HDAC8; [19]): 46072556
